# Results: the supplement of paper PMC11208160
# Test: recombinant UMI read abundance after kanamycin selection (control-corrected) (log10(CPM+1)); higher = more efficient recombination; extreme values may be limits of the assay; sequences stand for … in AGTGCAGAGAAAATCGGCCAGTTTTCTCTGCCTGCAGTCCGCATGCCGTGGGACCCCTTGGGTTCTAACCTGTTGCCTAGATTTATGCAGCGGACTGCCTTTCTCCCAAAGTGATAAACCGG…AGGTTGGTTTCACT; site = the 11-nt donor
# How it was run: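 Counts of recombinant UMIs were reported as log10(CPM+1). Before that, they were converted to CPM, averaged over replicates and scaled using control-derived factors. They came from PCR across the donor–target junction after Escherichia coli carrying the pair library and target plasmid was plated on IPTG (0.07 mM) plus kanamycin, or unselected, in two replicates each.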
# 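Further: IS621 bridge recombinase in Escherichia coli cells against a fixed T5 target plasmid.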
row,Sequence,recombinant UMI read abundance (log10)
1,CACCGTACATGGACCGGTTTTCCCGGTAATCCGTATTTGCT (site CTCCGTACTAG),0.912
2,CACCTGGCATGGACCGGTTTTCCCGGTAATCCGTATTTGGA (site CACATGGCTTC),0.0162
3,CACCTGGCATGGACCGGTTTTCCCGGTAATCCGTATTTGGA (site CACCTGGCTTC),0.595
4,CACCTGGCATGGACCGGTTTTCCCGGTAATCCGTATTTGGA (site CACGTGGCTTC),0.0355
5,CACCTGGCATGGACCGGTTTTCCCGGTAATCCGTATTTGGA (site CACTTGGCTTC),0.0384
6,CACGCCTCATGGACCGGTTTTCCCGGTAATCCGTATTTGAA (site CACGCCTCTTT),2.67
7,CACGCCTCATGGACCGGTTTTCCCGGTAATCCGTATTTGGC (site CACGCCTCTGC),2.52
8,CACGGCCCATGGACCGGTTTTCCCGGTAATCCGTATTTGTC (site CACGGCCCTAA),0.214
9,CACGGCCCATGGACCGGTTTTCCCGGTAATCCGTATTTGTC (site CACGGCCCTCA),0.166
10,CACGGCCCATGGACCGGTTTTCCCGGTAATCCGTATTTGTC (site CACGGCCCTGA),1.59
11,CACGGCCCATGGACCGGTTTTCCCGGTAATCCGTATTTGTC (site CACGGCCCTTA),0.469
12,CACGGCTCATGGACCGGTTTTCCCGGTAATCCGTATTTGCC (site CACGGCTCTGG),3.3
13,CACTACACATGGACCGGTTTTCCCGGTAATCCGTATTTGCT (site CACTACACTAG),2.44
14,CACTACACATGGACCGGTTTTCCCGGTAATCCGTATTTGCT (site CCCTACACTAG),1.16
15,CACTACACATGGACCGGTTTTCCCGGTAATCCGTATTTGCT (site CGCTACACTAG),0.729
16,CACTACACATGGACCGGTTTTCCCGGTAATCCGTATTTGCT (site CTCTACACTAG),1.79
17,CACTCCCCATGGACCGGTTTTCCCGGTAATCCGTATTTGCC (site CACTCCACTGG),0

row,Sequence,recombinant UMI read abundance (log10)
1,CACTCCCCATGGACCGGTTTTCCCGGTAATCCGTATTTGCC (site CACTCCCCTGG),1.23
2,CACTCCCCATGGACCGGTTTTCCCGGTAATCCGTATTTGCC (site CACTCCGCTGG),0
3,CACTCCCCATGGACCGGTTTTCCCGGTAATCCGTATTTGCC (site CACTCCTCTGG),1.43
4,CACTCCTCATGGACCGGTTTTCCCGGTAATCCGTATTTGCT (site CACTCCTCTAG),3.09
5,CACTCCTCATGGACCGGTTTTCCCGGTAATCCGTATTTGCT (site CACTCCTCTCG),0.583
6,CACTCCTCATGGACCGGTTTTCCCGGTAATCCGTATTTGCT (site CACTCCTCTGG),2.08
7,CACTCCTCATGGACCGGTTTTCCCGGTAATCCGTATTTGCT (site CACTCCTCTTG),1.69
8,CACTCCTCATGGACCGGTTTTCCCGGTAATCCGTATTTGTC (site CACTCCTCTGA),3.16
9,CACTCCTCATGGACCGGTTTTCCCGGTAATCCGTATTTGTC (site CACTCCTCTGC),1.7
10,CACTCCTCATGGACCGGTTTTCCCGGTAATCCGTATTTGTC (site CACTCCTCTGG),2.55
11,CACTCCTCATGGACCGGTTTTCCCGGTAATCCGTATTTGTC (site CACTCCTCTGT),3.06
12,CACTCGGCATGGACCGGTTTTCCCGGTAATCCGTATTTGAT (site CACTCGGCTAT),2.18
13,CACTCGGCATGGACCGGTTTTCCCGGTAATCCGTATTTGTA (site CACTCGGCTTA),2.18
14,CACTCTACATGGACCGGTTTTCCCGGTAATCCGTATTTGTA (site CACTCTACTTA),0.722
15,CACTGATCATGGACCGGTTTTCCCGGTAATCCGTATTTGCT (site CACTGATCTAG),2.61
16,CACTGATCATGGACCGGTTTTCCCGGTAATCCGTATTTGGG (site CACTGATCTCC),1.27
17,CACTTCGCATGGACCGGTTTTCCCGGTAATCCGTATTTGGA (site CACTTAGCTTC),0.0127
